Test results published in patent US20150105252A1, “SUBSTITUTED PYRAZOLES AS HERBICIDES” (E I DU PONT DE NEMOURS AND COMPANY, priority 2013, published 2015).

Experiments:
[1] = test system: chamomile; assay: Test D postemergence; format: in vivo, Matricaria inodora; settings: scale 0 to 100
How it was run: (§1)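 Seeds are planted in silt loam and treated preemergence, while parallel plantings in a peat moss/vermiculite medium with starter nutrients receive postemergence sprays at the 1- to 4-leaf stage. All formulations use a non-phytotoxic solvent mixture with surfactant. Plants are kept in a controlled growth environment and rated visually after 14–21 days.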

[2] = test system: lambsquarters; assay: Test D postemergence; format: in vivo, Chenopodium album; settings: scale 0 to 100
How it was run: as §1

[3] = test system: field violet; assay: Test D preemergence; format: in vivo, Viola arvensis; settings: scale 0 to 100
How it was run: as §1

[4] = test system: crabgrass, Brazil; assay: Test F preemergence; format: in vivo, Digitaria horizontalis
How it was run: (§2)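 Test chemicals in a non-phytotoxic solvent with surfactant were applied preemergence to seeds sown in silt loam, or postemergence to plants 2–18 cm tall (1- to 4-leaf stage). Plants were kept in a greenhouse for 14–21 days and then rated visually against controls on a 0 (no effect) to 100 (complete control) scale.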

[5] = test system: speedwell; assay: Test D preemergence; format: in vivo, Veronica persica; settings: scale 0 to 100
How it was run: as §1

[6] = test system: barnyardgrass; assay: Test F preemergence; format: in vivo, Echinochloa crus-galli
How it was run: as §2

[7] = test system: mustard, wild; assay: Test D postemergence; format: in vivo, Sinapis arvensis; settings: scale 0 to 100
How it was run: as §1

[8] = test system: blackgrass; assay: Test D postemergence; format: in vivo, Alopecurus myosuroides; settings: scale 0 to 100
How it was run: as §1

[9] = test system: oilseed rape; assay: Test D postemergence; format: in vivo, Brassica napus; settings: scale 0 to 100
How it was run: as §1

[10] = test system: morningglory; assay: Test F preemergence; format: in vivo, Ipomoea coccinea
How it was run: as §2

[11] = test system: barley, spring; assay: Test D postemergence; format: in vivo, Hordeum vulgare; settings: scale 0 to 100
How it was run: as §1

[12] = test system: barley, winter; assay: Test D postemergence; format: in vivo, Hordeum vulgare; settings: scale 0 to 100
How it was run: as §1

[13] = test system: field violet; assay: Test D postemergence; format: in vivo, Viola arvensis; settings: scale 0 to 100
How it was run: as §1

[14] = test system: canarygrass; assay: Test D postemergence; format: in vivo, Phalaris minor; settings: scale 0 to 100
How it was run: as §1

[15] = Preemergence, 31 g ai/ha, scale 0 to 100
[16] = Preemergence, 62 g ai/ha, scale 0 to 100
[17] = Preemergence, 125 g ai/ha, scale 0 to 100
[18] = preemergence, 8 g ai/ha, scale 0 to 100, 100 is complete control
[19] = preemergence, 16 g ai/ha, scale 0 to 100, 100 is complete control
[20] = Preemergence, 16 g ai/ha, scale 0 to 100

With `CCCc1cc(C(=O)NCC(F)(F)F)nn1Cc1ccnc(C(F)(F)F)c1` [Compound 105] the “Chamomile plant response rating” value ([1]; Postemergence, 31 g ai/ha) was 25, the “Chamomile plant response rating” value ([1]; Postemergence, 125 g ai/ha) was 65 and the “Chamomile plant response rating” value ([1]; Postemergence, 250 g ai/ha) was 80. For the same compound, the “Chamomile plant response rating” value ([1]; postemergence, 62 g ai/ha) was 50, the “Lambsquarters plant response rating” value ([2]; Postemergence, 31 g ai/ha) was 40 and the “Lambsquarters plant response rating” value ([2]; Postemergence, 125 g ai/ha) was 70. The “Lambsquarters plant response rating” value ([2]; Postemergence, 250 g ai/ha) was 80, the “Lambsquarters plant response rating” value ([2]; postemergence, 62 g ai/ha) was 65 and the “Plant response rating, Field Violet” value ([3]; 31 g ai/ha) was 100. For the same compound, the “Plant response rating, Field Violet” value ([3]; 62 g ai/ha) was 100, the “Plant response rating, Field Violet” value ([3]; 125 g ai/ha) was 100 and the “Plant response rating, Field Violet” value ([3]; 250 g ai/ha) was 100. For the same compound, the “Plant response rating, Crabgrass, Brazil” value [4, 15] was 98, the “Plant response rating, Crabgrass, Brazil” value [4, 16] was 100 and the “Plant response rating, Crabgrass, Brazil” value [4, 17] was 100. For the same compound, the “Plant response rating, Crabgrass, Brazil” value [4, 18] was 5, the “Plant response rating, Crabgrass, Brazil” value [4, 19] was 40 and the “Plant response rating, Speedwell” value ([5]; 31 g ai/ha) was 100. For the same compound, the “Plant response rating, Speedwell” value ([5]; 62 g ai/ha) was 100, the “Plant response rating, Speedwell” value ([5]; 125 g ai/ha) was 100 and the “Plant response rating, Speedwell” value ([5]; 250 g ai/ha) was 100. The “Plant response rating, Barnyardgrass” value [6, 15] was 30, the “Plant response rating, Barnyardgrass” value [6, 16] was 98 and the “Plant response rating, Barnyardgrass” value [6, 17] was 98. For the same compound, the “Plant response rating, Barnyardgrass” value [6, 18] was 0, the “Plant response rating, Barnyardgrass” value [6, 19] was 5 and the “Mustard, Wild plant response rating” value ([7]; Postemergence, 31 g ai/ha) was 70. For the same compound, the “Mustard, Wild plant response rating” value ([7]; Postemergence, 125 g ai/ha) was 85, the “Mustard, Wild plant response rating” value ([7]; Postemergence, 250 g ai/ha) was 90 and the “Mustard, Wild plant response rating” value ([7]; postemergence, 62 g ai/ha) was 60. For the same compound, the “Blackgrass plant response rating” value ([8]; Postemergence, 31 g ai/ha) was 10, the “Blackgrass plant response rating” value ([8]; Postemergence, 125 g ai/ha) was 65 and the “Blackgrass plant response rating” value ([8]; Postemergence, 250 g ai/ha) was 70. For the same compound, the “Blackgrass plant response rating” value ([8]; postemergence, 62 g ai/ha) was 15, the “Oilseed Rape plant response rating” value ([9]; Postemergence, 31 g ai/ha) was 40 and the “Oilseed Rape plant response rating” value ([9]; Postemergence, 125 g ai/ha) was 70. The “Oilseed Rape plant response rating” value ([9]; Postemergence, 250 g ai/ha) was 85, the “Oilseed Rape plant response rating” value ([9]; postemergence, 62 g ai/ha) was 60 and the “Plant response rating, Morningglory” value [10, 15] was 25. The “Plant response rating, Morningglory” value [10, 16] was 90, the “Plant response rating, Morningglory” value [10, 17] was 95 and the “Plant response rating, Morningglory” value [10, 18] was 20. For the same compound, the “Plant response rating, Morningglory” value [10, 19] was 25, the “Barley, Spring plant response rating” value ([11]; Postemergence, 31 g ai/ha) was 10 and the “Barley, Spring plant response rating” value ([11]; Postemergence, 125 g ai/ha) was 30. For the same compound, the “Barley, Spring plant response rating” value ([11]; Postemergence, 250 g ai/ha) was 45, the “Barley, Spring plant response rating” value ([11]; postemergence, 62 g ai/ha) was 10 and the “Barley, Winter plant response rating” value ([12]; Postemergence, 31 g ai/ha) was 10. For the same compound, the “Barley, Winter plant response rating” value ([12]; Postemergence, 125 g ai/ha) was 20, the “Barley, Winter plant response rating” value ([12]; Postemergence, 250 g ai/ha) was 30 and the “Barley, Winter plant response rating” value ([12]; postemergence, 62 g ai/ha) was 10. For the same compound, the “Field Violet plant response rating” value ([13]; Postemergence, 31 g ai/ha) was 40, the “Field Violet plant response rating” value ([13]; Postemergence, 125 g ai/ha) was 90 and the “Field Violet plant response rating” value ([13]; Postemergence, 250 g ai/ha) was 100. The “Field Violet plant response rating” value ([13]; postemergence, 62 g ai/ha) was 75, the “Canarygrass plant response rating” value ([14]; Postemergence, 31 g ai/ha) was 10 and the “Canarygrass plant response rating” value ([14]; Postemergence, 125 g ai/ha) was 25. The “Canarygrass plant response rating” value ([14]; Postemergence, 250 g ai/ha) was 40 and the “Canarygrass plant response rating” value ([14]; postemergence, 62 g ai/ha) was 15.

With `CCOc1cc(C(=O)NC(C)C)nn1Cc1ccnc(C(F)(F)F)c1` [Compound 188] the “Chamomile plant response rating” value ([1]; Postemergence, 31 g ai/ha) was 65, the “Chamomile plant response rating” value ([1]; Postemergence, 125 g ai/ha) was 70 and the “Chamomile plant response rating” value ([1]; Postemergence, 250 g ai/ha) was 75. For the same compound, the “Chamomile plant response rating” value ([1]; postemergence, 62 g ai/ha) was 65, the “Lambsquarters plant response rating” value ([2]; Postemergence, 31 g ai/ha) was 70 and the “Lambsquarters plant response rating” value ([2]; Postemergence, 125 g ai/ha) was 80. The “Lambsquarters plant response rating” value ([2]; Postemergence, 250 g ai/ha) was 90, the “Lambsquarters plant response rating” value ([2]; postemergence, 62 g ai/ha) was 70 and the “Plant response rating, Field Violet” value ([3]; 62 g ai/ha) was 100. For the same compound, the “Plant response rating, Field Violet” value ([3]; 125 g ai/ha) was 100, the “Plant response rating, Field Violet” value ([3]; 250 g ai/ha) was 100 and the “Plant response rating, Crabgrass, Brazil” value [4, 20] was 100. For the same compound, the “Plant response rating, Crabgrass, Brazil” value [4, 16] was 100, the “Plant response rating, Crabgrass, Brazil” value [4, 17] was 100 and the “Plant response rating, Crabgrass, Brazil” value [4, 18] was 35. The “Plant response rating, Speedwell” value ([5]; 62 g ai/ha) was 100, the “Plant response rating, Speedwell” value ([5]; 125 g ai/ha) was 100 and the “Plant response rating, Speedwell” value ([5]; 250 g ai/ha) was 100. The “Plant response rating, Barnyardgrass” value [6, 20] was 25, the “Plant response rating, Barnyardgrass” value [6, 16] was 80 and the “Plant response rating, Barnyardgrass” value [6, 17] was 100. For the same compound, the “Plant response rating, Barnyardgrass” value [6, 18] was 0, the “Mustard, Wild plant response rating” value ([7]; Postemergence, 31 g ai/ha) was 50 and the “Mustard, Wild plant response rating” value ([7]; Postemergence, 125 g ai/ha) was 60. For the same compound, the “Mustard, Wild plant response rating” value ([7]; Postemergence, 250 g ai/ha) was 85, the “Mustard, Wild plant response rating” value ([7]; postemergence, 62 g ai/ha) was 50 and the “Blackgrass plant response rating” value ([8]; Postemergence, 31 g ai/ha) was 15. The “Blackgrass plant response rating” value ([8]; Postemergence, 125 g ai/ha) was 35, the “Blackgrass plant response rating” value ([8]; Postemergence, 250 g ai/ha) was 45 and the “Blackgrass plant response rating” value ([8]; postemergence, 62 g ai/ha) was 15. For the same compound, the “Oilseed Rape plant response rating” value ([9]; Postemergence, 31 g ai/ha) was 55, the “Oilseed Rape plant response rating” value ([9]; Postemergence, 125 g ai/ha) was 55 and the “Oilseed Rape plant response rating” value ([9]; Postemergence, 250 g ai/ha) was 70. The “Oilseed Rape plant response rating” value ([9]; postemergence, 62 g ai/ha) was 55, the “Plant response rating, Morningglory” value [10, 20] was 30 and the “Plant response rating, Morningglory” value [10, 16] was 70. The “Plant response rating, Morningglory” value [10, 17] was 100, the “Plant response rating, Morningglory” value [10, 18] was 65 and the “Barley, Spring plant response rating” value ([11]; Postemergence, 31 g ai/ha) was 15. The “Barley, Spring plant response rating” value ([11]; Postemergence, 125 g ai/ha) was 25, the “Barley, Spring plant response rating” value ([11]; Postemergence, 250 g ai/ha) was 65 and the “Barley, Spring plant response rating” value ([11]; postemergence, 62 g ai/ha) was 15. For the same compound, the “Barley, Winter plant response rating” value ([12]; Postemergence, 31 g ai/ha) was 15, the “Barley, Winter plant response rating” value ([12]; Postemergence, 125 g ai/ha) was 40 and the “Barley, Winter plant response rating” value ([12]; Postemergence, 250 g ai/ha) was 65. The “Barley, Winter plant response rating” value ([12]; postemergence, 62 g ai/ha) was 15, the “Field Violet plant response rating” value ([13]; Postemergence, 31 g ai/ha) was 85 and the “Field Violet plant response rating” value ([13]; Postemergence, 125 g ai/ha) was 100. For the same compound, the “Field Violet plant response rating” value ([13]; Postemergence, 250 g ai/ha) was 100, the “Field Violet plant response rating” value ([13]; postemergence, 62 g ai/ha) was 85 and the “Canarygrass plant response rating” value ([14]; Postemergence, 31 g ai/ha) was 15. For the same compound, the “Canarygrass plant response rating” value ([14]; Postemergence, 125 g ai/ha) was 20, the “Canarygrass plant response rating” value ([14]; Postemergence, 250 g ai/ha) was 35 and the “Canarygrass plant response rating” value ([14]; postemergence, 62 g ai/ha) was 15.
